Reference: ChEMBL document CHEMBL3880384, “2-Phenylquinoxalines as inhibitors for MPP1” (2006)
Active and inactive are the calls of the source. No cut-off for these calls is given here.

Target: Kinesin-like protein KIF20B (Homo sapiens) (UniProt Q96Q89)
Assay: Inhibition of MPP1 in human HeLaS3 cells assessed as induction of binucleate phenotype after 18 hrs
Assay type: cell-based
Settings: HeLa S3

Sequence of Kinesin-like protein KIF20B (Homo sapiens) (Q96Q89 whole entry): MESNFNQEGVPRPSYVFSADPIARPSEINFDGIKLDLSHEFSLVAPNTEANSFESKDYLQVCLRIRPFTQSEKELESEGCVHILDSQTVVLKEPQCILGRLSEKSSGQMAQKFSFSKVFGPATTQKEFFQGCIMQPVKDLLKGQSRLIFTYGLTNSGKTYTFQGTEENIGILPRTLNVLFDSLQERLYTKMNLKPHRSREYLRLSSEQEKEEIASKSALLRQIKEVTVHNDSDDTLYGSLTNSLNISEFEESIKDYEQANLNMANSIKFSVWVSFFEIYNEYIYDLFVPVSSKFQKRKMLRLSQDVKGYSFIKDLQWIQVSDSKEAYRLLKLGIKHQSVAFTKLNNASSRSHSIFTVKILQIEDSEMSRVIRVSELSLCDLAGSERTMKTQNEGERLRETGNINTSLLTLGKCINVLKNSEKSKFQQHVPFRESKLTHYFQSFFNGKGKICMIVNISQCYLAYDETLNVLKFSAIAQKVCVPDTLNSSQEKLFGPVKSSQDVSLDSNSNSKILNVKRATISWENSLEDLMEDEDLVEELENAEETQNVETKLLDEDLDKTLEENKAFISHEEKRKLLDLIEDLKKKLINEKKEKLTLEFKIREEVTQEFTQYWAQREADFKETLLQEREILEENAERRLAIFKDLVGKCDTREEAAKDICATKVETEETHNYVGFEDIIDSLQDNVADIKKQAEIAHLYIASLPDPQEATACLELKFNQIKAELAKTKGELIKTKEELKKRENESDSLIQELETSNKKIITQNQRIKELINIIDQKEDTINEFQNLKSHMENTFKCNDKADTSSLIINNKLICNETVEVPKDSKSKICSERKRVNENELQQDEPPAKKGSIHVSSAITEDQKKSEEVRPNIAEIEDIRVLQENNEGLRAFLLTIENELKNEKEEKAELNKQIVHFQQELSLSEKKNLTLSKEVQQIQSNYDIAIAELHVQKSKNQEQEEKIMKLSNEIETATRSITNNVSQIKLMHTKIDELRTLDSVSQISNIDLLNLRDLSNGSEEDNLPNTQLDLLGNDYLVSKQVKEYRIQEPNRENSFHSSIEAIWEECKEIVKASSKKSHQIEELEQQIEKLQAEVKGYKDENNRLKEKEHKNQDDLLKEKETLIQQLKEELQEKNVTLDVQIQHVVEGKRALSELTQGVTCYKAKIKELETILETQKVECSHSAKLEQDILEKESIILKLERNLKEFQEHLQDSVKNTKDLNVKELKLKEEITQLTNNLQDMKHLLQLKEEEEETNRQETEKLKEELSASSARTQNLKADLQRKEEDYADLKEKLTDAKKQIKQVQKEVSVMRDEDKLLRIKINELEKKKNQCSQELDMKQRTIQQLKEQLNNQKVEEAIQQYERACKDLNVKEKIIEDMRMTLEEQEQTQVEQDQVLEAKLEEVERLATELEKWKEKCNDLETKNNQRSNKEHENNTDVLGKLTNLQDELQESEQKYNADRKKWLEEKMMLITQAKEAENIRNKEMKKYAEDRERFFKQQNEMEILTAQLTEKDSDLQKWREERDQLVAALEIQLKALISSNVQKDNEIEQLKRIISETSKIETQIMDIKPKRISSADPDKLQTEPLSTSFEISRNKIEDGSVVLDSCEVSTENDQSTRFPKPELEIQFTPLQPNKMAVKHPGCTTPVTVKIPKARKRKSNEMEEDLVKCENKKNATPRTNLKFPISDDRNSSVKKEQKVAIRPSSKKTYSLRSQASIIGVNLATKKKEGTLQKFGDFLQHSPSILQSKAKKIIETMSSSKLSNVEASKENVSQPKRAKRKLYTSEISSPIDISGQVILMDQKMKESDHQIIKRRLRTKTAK

inhibition: Active
SMILES: FC(F)(F)c1cc(Cl)c2ncc(-c3ccc(Cl)c(Cl)c3)nc2c1
